Source: patent publication US9034882B2, “Inhibitors of human immunodeficiency virus replication” (priority 2012, dated 2015)
Like-named read-outs stand apart in the source and are kept apart here.

System: recombinant NL-Rluc virus
Assay: Inhibition of HIV replication (NL-RLuc luciferase reporter virus in MT-2 cells)
Type: cell-based
Settings: Human immunodeficiency virus 1, MT2, 120 h

Structure (SMILES)	EC50 (read-out: Activity)	EC50 (read-out: EC50 μM)
Cc1nc2cc(-c3cccc(Oc4ccccc4)n3)nn2c(N2CCC(C)(C)CC2)c1[C@H](OC(C)(C)C)C(=O)O [Example 68, (S)-2-(tert-Butoxy)-2-(7-(4,4-dimethylpiperidin-1-yl)-5-methyl-2-(6-phenoxypyridin-2-yl)pyrazolo[1,5-a]pyrimidin-6-yl)acetic acid]	0.1 to 1 µM	
Cc1nc2cc(-c3ccccc3)nn2c(N2CCC(F)(F)CC2)c1C(OC(C)(C)C)C(=O)O (centres unmarked) [Example 21]	> 1 µM	
Cc1nc2cc(-c3cccc(OCc4ccccc4)c3)nn2c(N2CCC(C)CC2)c1C(OC(C)(C)C)C(=O)O (centres unmarked) [Example 31, 2-(2-(3-(benzyloxy)phenyl)-5-methyl-7-(4-methylpiperidin-1-yl)pyrazolo[1,5-a]pyrimidin-6-yl)20(tert-butoxy)acetic acid]	< 0.1 µM	
Cc1nc2cc(-c3ccccc3)nn2c(N2CCCNCC2)c1C(OC(C)(C)C)C(=O)O (centres unmarked) [Example 4, 2(7-(1,4-diazepan-1-yl)-5-methyl-2-phenylpyrazolo[1,5a]pyrimidin-6-yl)-2-(tert-butoxy)-acetic acid]	> 1 µM	
Cc1nc2cc(-c3cccc(-c4ccccc4)c3)nn2c(N2C3CCC2CN(C)C3)c1[C@H](OC(C)(C)C)C(=O)O [Example 50, (S)-2-(2-([1,1′-Biphenyl]-3-yl)-5-methyl-7-((1R,5S)-3-methyl-3,8-diazabicyclo[3.2.4]octan-8-yl)pyrazolo[1,5-a]pyrimidin-6-yl)-2-(tert-butoxy)acetic acid]	> 1 µM	3.23 µM
Cc1nc2cc(-c3cccc(-c4ccc(F)cc4)c3)nn2c(N2CCC3(CC2)CC3)c1[C@H](OC(C)(C)C)C(=O)O [Example 54, (S)-2-(tert-Butoxy)-2-(2-(4′-fluoro-[1,1′-biphenyl]-3-yl)-5-methyl-7-(6-azaspiro[2.5]octan-6-yl)pyrazolo[1,5-a]pyrimidin-6-yl)acetic acid]	0.1 to 1 µM	
Cc1nc2cc(-c3cc(-c4ccccc4)ccn3)nn2c(N2CCC(C)(C)CC2)c1[C@H](OC(C)(C)C)C(=O)O [Example 65, (S)-2-(tert-Butoxy)-2-(7-(4,4-dimethylpiperidin-1-yl)-5-methyl-2-(4-phenylpyridin-2-yl)pyrazolo[1,5-a]pyrimidin-6-yl)acetic acid]	0.1 to 1 µM	
Cc1nc2cc(-c3ccccc3)nn2c(N2CCC(Br)CC2)c1C(OC(C)(C)C)C(=O)O (centres unmarked) [Example 22]	> 1 µM	
Cc1nc2c(-c3cccc(Cl)c3)cnn2c(N2CCC(C)(C)CC2)c1C(OC(C)(C)C)C(=O)O (centres unmarked) [Example 36, 2-(tert-butoxy)-2-(3-(3-chlorophenyl)-7-(4,4-dimethylpiperidin-1-yl)-5-pyrazolo[1,5a]pyrimidin-6-yl)acetic acid]	0.1 to 1 µM	
Cc1nc2cc(-c3ccccc3)nn2c(N2CCC3(CCCC3)C2)c1[C@H](OC(C)(C)C)C(=O)O [Example 26, (S)-2-(tert-butoxy)-2-(5-methyl-2-phenyl-7-(2-azaspiro[4.4]nonan-2-yl)pyrazolo[1,5-a]pyrimidin-6-yl)acetic acid]	0.1 to 1 µM	0.3 µM
Cc1nc2cc(-c3cccc(-c4ccc5cnn(C)c5c4)c3)nn2c(N2CCC(C)(C)CC2)c1[C@H](OC(C)(C)C)C(=O)O [Example 57, (S)-2-(tert-Butoxy)-2-(7-(4,4-dimethylpiperidin-1-yl)-5-methyl-2-(3-(1-methyl-1H-indazol-6-yl)phenyl)pyrazolo[1,5-a]pyrimidin-6-yl)acetic acid]	< 0.1 µM	
Cc1nc2cc(-c3cccc(-c4ccccc4)n3)nn2c(N2CCC(C)(C)CC2)c1[C@H](OC(C)(C)C)C(=O)O [Example 67, (S)-2-(tert-Butoxy)-2-(7-(4,4-dimethylpiperidin-1-yl)-5-methyl-2-(6-phenylpyridin-2-yl)pyrazolo[1,5-a]pyrimidin-6-yl)acetic acid]	0.1 to 1 µM	
Cc1nc2cc(-c3cccc(-c4ccccc4)c3)nn2c(N2CCC(C)(C)CC2)c1C(OC(C)(C)C)C(=O)O (centres unmarked) [Example 35, 2-(2-([1,1′-Biphenyl]-3-yl)-7-(4,4-dimethylpiperidin-1-yl)-5-methylpyrazolo[1,5-a]pyrimidin-6-yl)-2-(tert-butoxy)acetic acid]	0.1 to 1 µM	0.13 µM
Cc1nc2cc(-c3ccccc3)nn2c(N2CCCC(F)C2)c1C(OC(C)(C)C)C(=O)O (centres unmarked) [Example 18]	> 1 µM	
Cc1nc2cc(-c3ccccc3)nn2c(N2CCCC2C(C)C)c1C(OC(C)(C)C)C(=O)O (centres unmarked) [Example 25]	> 1 µM	
Cc1nc2cc(-c3cccc(-c4ccccc4F)c3)nn2c(N2CCC3(CC2)CC3)c1[C@H](OC(C)(C)C)C(=O)O [Example 51, (S)-2-(tert-Butoxy)-2-(2-(2′-fluoro-[1,1′-biphenyl]-3-yl)-5-methyl-7-(6-azaspiro[2.5]octan-6-yl)pyrazolo[1,5-a]pyrimidin-6-yl)acetic acid]	0.1 to 1 µM	
Cc1nc2nc(-c3ccccc3)nn2c(N2CC[C@H]3CCCC[C@@H]3C2)c1C(OC(C)(C)C)C(=O)O (stereo partly drawn) [Example 40, 2-(tert-Butoxy)-2-(5-methyl-7-((4aR,8aS)-octahydroisoquinolin-2(1H)-yl)-2-phenyl-[1,2,4]triazolo[1,5-a]pyrimidin-6-yl)acetic acid]	> 1 µM	
Cc1nc2cc(-c3cccc(-c4ccccc4)c3)nn2c(N2[C@@H]3CC[C@H]2COC3)c1[C@H](OC(C)(C)C)C(=O)O [Example 45, (S)-2-(2-([1,1′-Biphenyl]-3-yl)-7-((1R,5S)-3-oxa-8-azabicyclo[3.2.1]octan-8-yl)-5-methylpyrazolo[1,5-a]pyrimidin-6-yl)-2-(tert-butoxy)acetic acid]	> 1 µM	3.14 µM
Cc1nc2cc(-c3cccc(-c4ccccc4)c3)nn2c(N2CCC3(C)CC3C2)c1[C@H](OC(C)(C)C)C(=O)O (stereo partly drawn) [Example 61, (2S)-2-(2-([1,1′-Biphenyl]-3-yl)-5-methyl-7-(6-methyl-3-azabicyclo[4.1.0]heptan-3-yl)pyrazolo[1,5-a]pyrimidin-6-yl)-2-(tert-butoxy)acetic acid]	0.1 to 1 µM	
Cc1nc2cc(-c3cccc(OCc4ccccc4)c3)nn2c(N2CCC(C)(C)CC2)c1C(OC(C)(C)C)C(=O)O (centres unmarked) [Example 32, 2-(2-(3-(benzyloxy)phenyl)-7-(4,4-dimethylpiperidin-1-yl)-5-methylpyrazolo[1,5-a]pyrimidin-6-yl)2-(tert-butoxy)acetic acid]	< 0.1 µM	0.06 µM
Cc1nc2cc(-c3ccccc3)nn2c(N2CCC(C(F)(F)F)CC2)c1C(OC(C)(C)C)C(=O)O (centres unmarked) [Example 23]	> 1 µM	
